Measurements taken from paper PMC12865225 (Clinical and Translational Science, 2026).

Molecular target: T1, OATP1B3 (Homo sapiens, UniProt Q9NPD5)
T1 construct: expressed in transfected cells; host or cells: HEK293 (recombinant baculovirus-mediated transduction)
T1 sequence (Q9NPD5 1-702): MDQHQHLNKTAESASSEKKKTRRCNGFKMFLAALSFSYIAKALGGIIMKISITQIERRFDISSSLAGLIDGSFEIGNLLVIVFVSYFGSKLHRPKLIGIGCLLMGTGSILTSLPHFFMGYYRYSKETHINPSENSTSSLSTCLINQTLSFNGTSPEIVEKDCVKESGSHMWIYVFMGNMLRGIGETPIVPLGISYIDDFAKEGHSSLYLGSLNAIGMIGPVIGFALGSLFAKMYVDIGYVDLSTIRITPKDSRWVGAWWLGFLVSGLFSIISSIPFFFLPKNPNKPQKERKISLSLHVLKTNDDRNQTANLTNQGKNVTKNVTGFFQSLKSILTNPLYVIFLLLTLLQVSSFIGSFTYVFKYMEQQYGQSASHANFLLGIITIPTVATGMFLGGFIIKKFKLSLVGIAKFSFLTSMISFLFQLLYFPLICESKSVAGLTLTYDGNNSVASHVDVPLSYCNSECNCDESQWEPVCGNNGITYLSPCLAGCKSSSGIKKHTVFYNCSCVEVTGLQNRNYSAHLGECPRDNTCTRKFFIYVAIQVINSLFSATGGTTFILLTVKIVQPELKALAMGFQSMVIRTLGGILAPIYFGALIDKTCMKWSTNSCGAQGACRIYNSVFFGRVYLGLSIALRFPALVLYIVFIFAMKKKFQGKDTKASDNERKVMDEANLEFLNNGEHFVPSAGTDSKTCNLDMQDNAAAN
Experiment: OATP1B3 inhibition with fluorescent substrate 8-Fluo-cAMP in HEK293 cells
Format: cell-based
Details: 2.5 µM 8-Fluo-cAMP, 5 min, 30 min preincubation
Description: 8- (2- [Fluoresceinyl]aminoethylthio)adenosine- 3', 5'- cyclic monophosphate (8-Fluo-cAMP) was acquired from Biolog Life Science Institute (Bremen, Germany), 4′,5′-dibromofluorescein was acquired from Sigma-Aldrich (St. Louis, MO, USA) and 2′,7′-dichlorofluorescein was acquired from Santa Cruz Biotechnology (Dallas, TX, USA).
Inhibition studies with fluorescent substrates in OATP transduced HEK293 cells The concentrations of fluorescent probe substrates were 1 µM 2′,7′-dichlorofluorescein for OATP1B1, 2.5 µM 8-Fluo-cAMP for OATP1B3 and 1 µM 4′,5′-dibromofluorescein for OATP2B1, and these concentrations were selected to be within or below of previously reported […]
reported linear ranges of transport for these substrate-transporter combinations.1,2,4 8-Fluo-cAMP was dissolved in ultrapure water, while dimethyl sulfoxide (DMSO) was used for all other compounds. […] For the quantification of fluorescent substrates, cells were lysed with 120 µl of lysis solution (1% Triton X-100, 5 mM EDTA, 150 mM sodium chloride and 150 mM TRIC-hydrochloride and adjusted to pH 8 with sodium hydroxide) for 30 min at 300 RPM shaking before transferring 80 µl of samples to a transparent 96-well plate containing 20 µl of 0.5 M sodium hydroxide. […] The plates were measured with a fluorescent plate reader (Varioskan LUX from ThermoFisher Scientific). […]

IC50 [µM] | SMILES
4.28 | Cc1onc(-c2c(Cl)cccc2Cl)c1C(=O)N[C@@H]1C(=O)N2[C@@H]1SC(C)(C)[C@@H]2C(=O)O [Dicloxacillin]
46.3 | Cc1onc(-c2c(F)cccc2Cl)c1C(=O)N[C@@H]1C(=O)N2[C@@H]1SC(C)(C)[C@@H]2C(=O)O [Flucloxacillin]
